{
  "source": "patent US5428031A",
  "about": "“Methods of treating cardiac arrhythmia” (priority 1993, dated 1995)",
  "target": "T1, IKr (rapidly activating delayed rectifier K+ current) (Cavia porcellus, UniProt O08703)",
  "T1 construct": "Guinea pig ventricular myocytes were isolated; endogenous in cells; host or cells: isolated guinea pig ventricular myocytes",
  "T1 sequence (O08703 1-1294)": "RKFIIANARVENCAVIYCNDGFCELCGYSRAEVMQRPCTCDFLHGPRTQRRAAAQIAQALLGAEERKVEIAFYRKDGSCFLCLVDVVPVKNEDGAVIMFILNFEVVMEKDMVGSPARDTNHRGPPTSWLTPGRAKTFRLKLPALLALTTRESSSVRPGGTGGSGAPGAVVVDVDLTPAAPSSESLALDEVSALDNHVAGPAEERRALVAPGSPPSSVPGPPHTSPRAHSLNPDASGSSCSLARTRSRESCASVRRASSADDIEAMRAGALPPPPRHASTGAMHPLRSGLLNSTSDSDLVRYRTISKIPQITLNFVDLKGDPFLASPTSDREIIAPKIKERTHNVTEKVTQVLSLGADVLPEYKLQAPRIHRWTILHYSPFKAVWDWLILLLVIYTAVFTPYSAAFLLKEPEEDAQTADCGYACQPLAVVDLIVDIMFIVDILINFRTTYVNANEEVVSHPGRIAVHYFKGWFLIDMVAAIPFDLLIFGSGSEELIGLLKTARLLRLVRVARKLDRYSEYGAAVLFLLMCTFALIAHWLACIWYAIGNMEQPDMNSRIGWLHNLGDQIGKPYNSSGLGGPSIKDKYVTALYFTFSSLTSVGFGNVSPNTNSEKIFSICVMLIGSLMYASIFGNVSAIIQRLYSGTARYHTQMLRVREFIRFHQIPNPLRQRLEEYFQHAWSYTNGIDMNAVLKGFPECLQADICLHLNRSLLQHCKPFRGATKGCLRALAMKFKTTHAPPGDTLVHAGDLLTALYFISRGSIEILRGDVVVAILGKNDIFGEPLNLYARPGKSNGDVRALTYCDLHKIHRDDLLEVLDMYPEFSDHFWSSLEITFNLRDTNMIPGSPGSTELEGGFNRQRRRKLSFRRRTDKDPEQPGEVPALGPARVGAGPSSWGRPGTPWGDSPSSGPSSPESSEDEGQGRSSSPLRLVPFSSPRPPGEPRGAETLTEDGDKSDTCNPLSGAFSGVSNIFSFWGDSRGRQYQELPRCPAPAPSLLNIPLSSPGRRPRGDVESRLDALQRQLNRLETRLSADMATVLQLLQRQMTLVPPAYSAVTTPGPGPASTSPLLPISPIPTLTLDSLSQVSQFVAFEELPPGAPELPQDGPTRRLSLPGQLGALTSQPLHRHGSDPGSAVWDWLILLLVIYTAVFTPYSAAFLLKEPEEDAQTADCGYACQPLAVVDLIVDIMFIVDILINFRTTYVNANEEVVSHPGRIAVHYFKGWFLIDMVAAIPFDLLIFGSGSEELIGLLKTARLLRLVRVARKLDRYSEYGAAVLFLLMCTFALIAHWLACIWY",
  "assay": "voltage clamp measurement of IKr block in isolated guinea pig ventricular myocytes",
  "assay_type": "cell-based",
  "procedure": "Guinea pig ventricular myocytes were isolated using a modification of the procedure described by Mitra R and Morad M., \"A Uniform Enzymatic Method for Dissociation of Myocytes from Hearts and Stomachs of Nertilorates\", Am. J. Physiol. […] Excised hearts were perfused through the aorta (retrograde fashion) at a rate of 10 ml/min with oxygenated, warmed (37° C.) solutions described below. […] The head was then perfused with the same nominally Ca^2+ -free solution containing 150 units/ml Type II collagenase (Worthington) and 0.5 units/ml Type XIV protease (Sigma) for 8 minutes. This perfusate was followed by a Tyrode's solution containing 0.2 mM CaCl2 (without enzymes) for 5 minutes. The digested ventricles were cut into small pieces and gently shaken until cells were visibly dispersed. The cells were stored at room temperature until use, within 8 hours after isolation.\nThe suction microelectrode technique described by Giles, W. R. and Shibata, E. F., \"Voltage clamp of bull-frog cardiac pacemaker cells: a quantitative, analysis of potassium currents\". J. Physiol. […] Microelectrodes were made by using a two stage puller from square bore (1.0 mm o.d.) borosilicate capillary tubing. […] After establishing whole-cell recording mode, negative pressure was maintained on the pipette using a 1 ml gas-tight syringe attached via air tight tubing to the suction port of the microelectrode holder. This minimized dialysis of the cell with the pipette solution.\nTo record K^+ currents, the cells were bathed in a Ca^2+ -free Tyrode's :solution containing […] nisoldipine. […] A List EPC-7 clamp amplifier was used to voltage clamp the isolated cells. […] A variety of voltage pulse protocols were used to measure Ca^2+ current and three types of K^+ currents: inward rectifier (IK1), rapidly activating delayed rectifier (IKr) and the slowly activating delayed rectifier (IKs). Sanguinetti M. C. and Jurkiewicz, N. K., \"Two components of cardiac delayed rectifier K^+ current: Differential sensitivity to block by Class III antiarrhythmic agents\". […] Data was analyzed as % block from control membrane currents.\nNisoldipins was prepared as a 4 mM stock solution in polyethylne glycol 200. Compounds tested in this series were prepared as 10 mM stock solutions in polyethylene glycol 400 or dimethyl sulfoxide.",
  "data": [
    {"smiles": "Cc1cccc(NC(=O)N[C@@H]2N=C(c3ccccc3)c3ccccc3N(C)C2=O)c1", "note": "[Compound 4, (R)-N-(2,3-dihydro-1-methyl-2-oxo-5-phenyl-1H-1,4-benzodiazepin-3-yl)-N'-(3-methylphenyl)urea]", "values": [
      {"measurement": "IC50", "value": "~5", "unit": "µM"},
      {"measurement": "effect on IKr", "setting": "1 μM", "value": "Little or no effect"}
    ]}
  ]
}
